We go through twelve compounds from ChEMBL document CHEMBL1131037, “Structure-based design, synthesis, and biological evaluation of irreversible human rhinovirus 3C protease inhibitors. 2. Peptide structure-activity studies” (J Med Chem, 1998).

In experiment [1] the test system is rhinovirus B14. The experiment in a line: Cytotoxic activity against HRV-14 in cell culture. It is filed as functional, rhinovirus 14. The settings on record: Rhinovirus B.
In experiment [2] the target is T1, Human rhinovirus A protease (Human rhinovirus sp.) (UniProt Q4U254).
T1 sequence (whole entry): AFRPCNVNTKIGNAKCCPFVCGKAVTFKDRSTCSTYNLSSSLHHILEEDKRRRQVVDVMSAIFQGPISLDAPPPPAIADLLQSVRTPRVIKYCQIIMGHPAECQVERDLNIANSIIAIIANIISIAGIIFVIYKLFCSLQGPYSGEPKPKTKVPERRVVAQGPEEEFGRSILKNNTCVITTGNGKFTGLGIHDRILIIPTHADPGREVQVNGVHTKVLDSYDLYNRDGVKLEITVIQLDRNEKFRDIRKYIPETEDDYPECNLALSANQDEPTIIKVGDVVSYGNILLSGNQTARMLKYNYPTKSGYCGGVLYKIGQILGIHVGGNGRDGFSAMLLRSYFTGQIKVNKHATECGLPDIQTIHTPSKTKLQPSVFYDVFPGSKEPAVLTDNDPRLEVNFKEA
The experiment in a line: Binding affinity on human Rhinovirus 3C protease (rhinovirus serotype 14); Slow.

The test system of experiment [3] is rhinovirus B14. The experiment in a line: Antiviral activity against HRV-14 in cell culture. The settings on record: Rhinovirus B. It is filed as functional, organism-based.
In experiment [4] the target is T1, Human rhinovirus A protease (Human rhinovirus sp.). The experiment in a line: (§1) Binding affinity on human Rhinovirus 3C protease (rhinovirus serotype 2).
For experiment [5] the target is unchanged. The experiment in a line: Binding affinity on human Rhinovirus 3C protease (rhinovirus serotype 14).
For a further experiment, the system named is HeLa. The experiment in a line: Compound was tested for antiviral activity against HRV-2 in cell culture. It is filed as functional, cell-based. The settings on record: Homo sapiens.
Experiment [6] has as its target T1, Human rhinovirus A protease (Human rhinovirus sp.). The experiment in a line: Binding affinity on human Rhinovirus 3C protease (rhinovirus serotype 16).
For experiment [7] the target is unchanged. Described as §1. It is filed as functional.

What is called CC50 is the concentration giving 50% cytotoxicity. For orientation: EC50 means the concentration at which the effect is half-maximal. Read a low EC50 as an effect from little substance. `CCOC(=O)/C=C/[C@H](CCC(N)=O)NC(=O)CNC(=O)[C@H](CC(C)C)NC(=O)OCc1ccccc1` came in with a CC50 in the experiment on rhinovirus B14 [1] of over 320 µM. The “K obs / 1” value in experiment [2] is “Slow”. This compound showed an EC50 in the experiment on rhinovirus B14 [3] of 141 µM.

Turning to `CCOC(=O)/C=C/[C@H](CCC(N)=O)NC(=O)[C@H](Cc1ccccc1)NC(=O)[C@H](CC(C)C)NC(=O)SCc1ccccc1`, the K obs / 1 was 28400 M⁻¹ s⁻¹ in experiment [4], 280000 M⁻¹ s⁻¹ in experiment [5] and 75000 M⁻¹ s⁻¹ in experiment [6]. In the experiment on rhinovirus B14 [1], this compound gave a 50% cytotoxic concentration (CC50) of 320 µM. For the same compound, the EC50 in the experiment with HeLa was found to be 1.9 µM; in the experiment on rhinovirus B14 [3], 0.27 µM.

For `CCOC(=O)/C=C/[C@H](CCC(N)=O)NC(=O)[C@H](Cc1ccc(CCO)cc1)NC(=O)[C@H](CC(C)C)NC(=O)OCc1ccccc1`, the K obs / 1 in experiment [4] is 700 M⁻¹ s⁻¹; in experiment [5] it was 43100 M⁻¹ s⁻¹; in experiment [6], 1300 M⁻¹ s⁻¹. The 50% cytotoxic concentration (CC50) in the experiment on rhinovirus B14 [1] is over 320 µM. In addition, the EC50 with rhinovirus B14 [3] is 3.5 µM.

Consider `CCOC(=O)/C=C/[C@H](CCC(N)=O)NC(=O)[C@H](Cc1cccs1)NC(=O)[C@H](CC(C)C)NC(=O)OCc1ccccc1`, for which the K obs / 1 in experiment [4] amounted to 1800 M⁻¹ s⁻¹; in experiment [5], 20000 M⁻¹ s⁻¹; in experiment [6], 4500 M⁻¹ s⁻¹. In the experiment with rhinovirus B14 [1], this compound returned a CC50 of over 100 µM. In the experiment with rhinovirus B14 [3], this compound yielded an EC50 of 0.56 µM.

Take `CCC[C@H](NC(=O)[C@H](CC(C)C)NC(=O)OCc1ccccc1)C(=O)N[C@H](/C=C/C(=O)OCC)CCC(N)=O`: the results for the K obs / 1 in experiment [4], in experiment [5] and in experiment [6] were 600 M⁻¹ s⁻¹, 2300 M⁻¹ s⁻¹ and 1200 M⁻¹ s⁻¹, respectively. In the experiment with rhinovirus B14 [1], the cytotoxic concentration (CC50) is over 320 µM. In the experiment on rhinovirus B14 [3], this compound yielded an EC50 of 5 µM.

On to `CCOC(=O)/C=C/[C@H](CCC(N)=O)NC(=O)[C@H](CC1CCCCC1)NC(=O)[C@H](CC(C)C)NC(=O)OCc1ccccc1`, for which the 50% cytotoxic concentration (CC50) with rhinovirus B14 [1] is over 320 µM. The figures for the K obs / 1 in experiment [5], in experiment [7] and in experiment [6] were 16300 M⁻¹ s⁻¹, 700 M⁻¹ s⁻¹ and 3500 M⁻¹ s⁻¹, respectively. The EC50 in the experiment on rhinovirus B14 [3] was 1.9 µM.

Consider `CCOC(=O)/C=C/[C@H](CCC(N)=O)NC(=O)[C@H](Cc1ccccc1)NC(=O)[C@H](CC(C)C)NC(=O)SCC`, for which the K obs / 1 stood at 8900 M⁻¹ s⁻¹ in experiment [4], 91300 M⁻¹ s⁻¹ in experiment [5] and 20000 M⁻¹ s⁻¹ in experiment [6]. The cytotoxic concentration (CC50) in the experiment with rhinovirus B14 [1] is over 320 µM. Besides, the EC50 in the experiment with HeLa was 1 µM; with rhinovirus B14 [3] it was 0.46 µM.

Take `CCOC(=O)/C=C/[C@H](CCC(N)=O)NC(=O)[C@H](Cc1ccc(C)cc1)NC(=O)[C@H](CC(C)C)NC(=O)OCc1ccccc1`: the K obs / 1 in experiment [4] worked out at 1400 M⁻¹ s⁻¹; in experiment [5] it was 59400 M⁻¹ s⁻¹; in experiment [6], 5300 M⁻¹ s⁻¹. In the experiment on rhinovirus B14 [1], this compound yielded a half-maximal cytotoxic concentration (CC50) of over 320 µM. Moreover, in the experiment with rhinovirus B14 [3], the concentration giving a half-maximal response (EC50) stood at 0.18 µM.

As for `CCOC(=O)/C=C/[C@H](CCC(N)=O)NC(=O)[C@H](Cc1ccc(OC)cc1)NC(=O)[C@H](CC(C)C)NC(=O)OCc1ccccc1`, the K obs / 1 in experiment [4] was determined as 1100 M⁻¹ s⁻¹; in experiment [5], 29000 M⁻¹ s⁻¹; in experiment [6] it was 3400 M⁻¹ s⁻¹. Moreover, the half-maximal cytotoxic concentration (CC50) with rhinovirus B14 [1] is over 320 µM. Further, the EC50 with HeLa was determined as 14 µM; in the experiment with rhinovirus B14 [3] it was 1.7 µM.

Turning to `CCOC(=O)/C=C/[C@H](CCC(N)=O)NC(=O)[C@H](Cc1ccc(F)cc1)NC(=O)[C@H](CC(C)C)NC(=O)OCc1ccccc1`, the K obs / 1 is 2400 M⁻¹ s⁻¹ in experiment [4], 46000 M⁻¹ s⁻¹ in experiment [5] and 9200 M⁻¹ s⁻¹ in experiment [6]. The compound also returned a 50% cytotoxic concentration (CC50) in the experiment on rhinovirus B14 [1] of over 320 µM. The half-maximal effective concentration (EC50) in the experiment with HeLa worked out at 5.6 µM; with rhinovirus B14 [3], 1.8 µM.

For `CCOC(=O)/C=C/[C@H](CCC(N)=O)NC(=O)[C@H](Cc1ccccc1)NC(=O)[C@@H](NC(=O)OCc1ccccc1)[C@H](C)O`, in the experiment on rhinovirus B14 [1], the CC50 is over 320 µM. Further, the K obs / 1 in experiment [5] stood at 38900 M⁻¹ s⁻¹. Moreover, the EC50 in the experiment with rhinovirus B14 [3] was determined as 1.8 µM.

For the compound `CCOC(=O)/C=C/[C@H](CCC(N)=O)NC(=O)[C@H](Cc1ccccc1)NC(=O)[C@H](CSC)NC(=O)OCc1ccccc1`, the CC50 in the experiment on rhinovirus B14 [1] is over 100 µM. The same compound displayed a K obs / 1 in experiment [5] of 35200 M⁻¹ s⁻¹. In the experiment on rhinovirus B14 [3], the EC50 was found to be 0.18 µM.
